Laboratory results as given in US4690935A, “Inhibition of tumor growth and metastasis with calcium channel blocker compounds” (Wayne State University, priority 1983, dated 1987).
“Also recorded” adds a separate entry of the source. Like-named read-outs stand apart in the source and are kept apart here.

How the values were obtained:
B16a Tumor Cells = test: "Experimental" metastasis (lung colonies) induced by tail vein injection of B16a tumor cells; format: in vivo, mouse; settings: oral, mice; for % of Control (mean number of metastatic lesions on lung surface): 1 h before and 1 h after tumor cells, 21 days, x ± SEM, n = 12, control = 100%; for reduction of lung colonies / tail vein metastasis (in words): tail vein injection of B16a
Description: B16 amelanotic melanoma (B16a) and Walker 256 L-Pam carcinosarcoma were obtained from the Division of Cancer Treatment, Animal and Human Tumor Bank, Mason Research Institute, Worcester, Mass. Tumors were passaged four times after receipt in syngeneic C57BL/6J male mice (B16a) or allogenic Sprague Dawley rats (Walker 256 L-Pam). Passaging involved subcutaneous implantations of tumor pices (diced to approximately 2×2 MM) into the right auxiliary region using a 18 gauge needle. Mice weighing approximately 20 grams (4 to 5 weeks old) were used to passage the B16a cell line and female rats were used to passage the Walker 256 L-Pam cell line. Animals were housed under identical conditions of temperature, feeding, photoperiod, etc. The transplanted tumors were allowed to grow for approximately 14 days following implantation.
The B16a tumor cells, obtained by the previously described procedure of tumor dispersion and tumor cell elutriation were used to test the antimetastatic effect of BAY e 9736.
A 40 mg portion of BAY e 9736 was dissolved in 1 ml of polyethylene glycol (PEG-400). This stock solution was diluted 1:5, 1:10, 1:50 and 1:1000 with PEG-400. C56BL/6J mice weighing an average of 20 grams were injected orally with 0.1 ml of the diluted BAY e 9736 one hour before and one hour after challenge with tumor cells. One hour after the first oral administration of BAY e 9736, the mice were injected via the tail vein with a 3×10^4 B16a tumor cell suspension in 0.05 ml prepared as described previously. The control and treated mice were kept under identical conditions of temperature, feeding) photoperiod, etc. The mice were sacrificed 21 days after tail vein injection of the tumor cells and the lungs were removed, fixed in Bouin's solution and visible bilateral metastasis counted.

[1] = test system: Walker 256 L-Pam tumor cell; test: Walker 256 L-Pam tumor cell attachment to virally transformed endothelial cell monolayer (RCE-T1); format: cell-based, rat; settings: 0.04 mg/ml; for effect on tumor cell adhesion to endothelial cell monolayer (in words): thirty minutes preincubation; for inhibition at 40 µg/mL: Rattus norvegicus, Walker 256, 1 h, 1 h plating, x ± SEM, n = 4, read-out: % Inhibition vs Control (attachment to endothelial cells)
Description: Walker ^256 L-Pam tumor cells were plated at approximately 5×10^5 cells/flask. The cells were labelled with ^125 I-UDR (iodinated uridine deoxyribonucleic acid) at 0.5 microcuries/ml media (5.0 microcurie/flask). Cells were incubated for approximately 24 hours and the cell count/flask was determined to be 8.14×10^5 cell/flask. The cells from each flask were counted (gamma counter) and found to have an average of 0.24 cpm/cell.
Platelet enhanced tumor cell attachment to plastic was tested using four conditions: tumor cell alone (Condition A), tumor cells plus washed platelets (Condition B), tumor cells plus platelet poor plasma (Condition C) and tumor cells, washed platelets and platelet poor plasma (Condition D).
Walker 256 L-Pam tumor cells obtained from culture are radiolabeled with ^125 I-UDR as described previously. The radiolabeled cells are removed from T-75 flasks with trypsin (2 milliliters of 0.25% trypsin and 0.01% EDTA) in MEM. After two minutes, the flasks are washed 3X with trypsin "quench," 10% fetal calf serum in MEM, to quench and remove the trypsin in order to prevent cell lysis. The tumor cells are removed from the flasks in MEM and adjusted to 2.5×10^5 cells /milliliter. One hundred microliters of the tumor cell suspension (2.5×10^4 cells) were plated in […] tissue culture wells (Costar) and overlaid with 250 microliters of Wash Solution #2 (see Platelet Prep). The cells were incubated at room temperature (approximately 22° C.) for 5 minutes. Following this incubation 10 microliters of 7.35 mg/ml CaCl2 were added to the culture wells, 10 microliters of platelet poor plasma (diluted 1:32 with platelet Wash Solution #2) were added to culture wells for Conditions C and D and 250 microliters of washed platelets (3×10^8 /ml final concentration) were added to culture wells for Conditions B and D. Where appropriate, Wash Solution #2 was added to wells (Conditions A and C) so that all wells had the same final volume of solutions. The wells were incubated for one hour at 37° C. After the one hour incubation, the media containing any unattached tumor cells were removed by aspiration and then the wells were washed 2X with 1 ml of sodium phosphate buffer (PBS). The adhering cells were removed by trypsinization (as described above) and counts per wells determined using a gamma counter. Results were determined as total cpm plated per well.
Platelet enhanced tumor cell attachment to a virally transformed endothelial cell monolayer (on plastic wells) was also tested. The experimental protocal utilized was similar to that described above. The only significant difference is that in the above assay the floor of each incubation well is the plastic material of the plate, and in these assays, that plastic floor is covered with a confluent monolayer of virally transformed rat cerebral microvascular endothelial cells. The cells were prepared and plated as described in detail in Laboratory Investigations, Vol 46, No. 6, […], 1982 (Diglio, C. A., Grammas, P., Giacomelli, F., and Wiener, J., Lab. Investigations Vol 46, No. 6, p554-563, 1982) and in J. Cell. Biol (Manuscript accepted 3/83) (Diglio, C., Wolfe, D. E., and Meyers, P. J. Cell. Biol. manuscript in press, 1983). Briefly, rat endothelial cells were dispersed from […] microvasculature by collagenase treatment. Migrating cells and cell proliferation are seen. Isolated cells are allowed to proliferate in culture until the expected "cobblestone" appearance characteristic of normal endothelial cells is obtained.
Cultured (subconfluent) normal endothelial cells are infected with Schmidt-Ruppin Rous Sarcoma virus-strain D (SR-RSV-D). A single transformed focus was isolated and recultured. The resulting transformed endothelial cell line was designated RCE-T1 (also known as SR-D1).
In the actual assay, the protocol for tumor cell adhesion to plastic or transformed endothelial cell are similar. […]

COCCOC(=O)C1=C(C)NC(C)=C(C(=O)OC(C)C)C1c1cccc([N+](=O)[O-])c1 (stereo not drawn) [BAY e 9736, 1,4-dihydro-2,6-dimethyl-4-(3' nitrophenyl)-pyridine-3-(beta-methyoxyethylester)-5-(isopropyl ester)] was tested, and the “% of Control (mean number of metastatic lesions on lung surface)” value (“% of Control” below) (B16a Tumor Cells; 0.2 mg/kg) was 55 ± 5%, the “% of Control” value (B16a Tumor Cells; 4.0 mg/kg) was 60 ± 7% and the “% of Control” value (B16a Tumor Cells; 20.0 mg/kg) was 73 ± 13.7%. For the same compound, the “% of Control” value (B16a Tumor Cells; 40.0 mg/kg) was 74 ± 7.5%, the “reduction of lung colonies / tail vein metastasis (in words)” value (B16a Tumor Cells) was “effective in reducing the number of lung colonies at all levels examined” and the “reduction of lung colonies / tail vein metastasis (in words)” value (B16a Tumor Cells; listed as nimodipine) was “reduce metastasis induced by tail vein injection”. The “effect on tumor cell adhesion to endothelial cell monolayer (in words)” value [1] was “decreased the percent of cells adhering to the plastic wells as well as the endothelial cell monolayer; also recorded: significant in all groups tested”, the “effect on tumor cell adhesion to endothelial cell monolayer (in words)” value ([1]; listed as nimodipine) was “decreases or inhibits the adhesion of tumor cells to plastic incubation wells and to virally transformed endothelial cell monolayers” and the inhibition at 40 µg/mL ([1]; A = tumor cells alone) was 50%. For the same compound, the inhibition at 40 µg/mL ([1]; B = tumor cells + platelets) was 65 ± 7.8%, the inhibition at 40 µg/mL ([1]; C = tumor cells + PPP) was 60 ± 5% and the inhibition at 40 µg/mL ([1]; D = tumor cells + PPP + platelets) was 53 ± 5.5%.
